Measured values as given in patent US4940790A, “5-(3-alkyl-5-tert.butyl-4-hydroxyphenyl)-2-amino-6H-1,3,4-thiadiazines” (Hoechst Aktiengesellschaft, priority 1987, dated 1990).
pIC50: −log10 of the molar value. Counter-ions that a name gives are not always drawn. Like-named read-outs stand apart in the source and are kept apart here.

Key:
[1] = system: adjuvant arthritis; assay: Adjuvant arthritis (method of Pearson), reduction in the increase in paw volume; type: in vivo, male rats of a Wistar-Lewis strain; conditions: Rattus norvegicus, po; for inhibition in vivo at 50 mg/kg: 50 mg/kg p.o., once daily day 1 to day 5, rats; for inhibition in vivo at 12.5 mg/kg: * 12.5 mg/kg p.o.; for ED50: read-out: ED50 in adjuvant arthritis
From the text: 1. […] The experimental animals used were male rats of a Wistar-Lewis strain having a body weight between 130 and 200 g. […] The animals in a control group received only the vehicle. Each preparation and control group comprised 8 animals. The criterion for action was the percentage reduction in the increase in paw volume compared to that of the untreated control group.

[2] = in vivo; conditions: mouse, ip; for LD50 at 168 h: read-out: Acute toxicity LD50
Method: The LD50 values were determined by a standard method from the mortality occurring within 7 days in NMRI (Naval Medical Research Institute) mice (6 animals per dose) after a single intraperitoneal (i.p.) administration.

[3] = Acute gastral ulcerogenity; parameters: species or system male Sprague-Dawley rats; conditions: rat, in vivo, po
Method: 2. Acute gastral ulcerogenity
The investigation took place on 10 male Sprague-Dawley rats whose gastric mucous membrane had been sensitized by hunger stress. The body weight of the animals was between 200 and 300 g. While allowing free access to the drinking water, the feed was withdrawn from the animals 48 hours before administration of the test preparations until sacrifice of the animals. The rats were sacrificed 24 hours after oral substance administration, and the stomachs were removed, cleaned under running water and inspected for mucous membrane lesions. All macroscopically visible lesions were regarded as ulcers. The number of animals having ulcers was determined for each dose, and the UD50 values, i.e. the doses at which lesions were caused in 50% of the animals, were calculated from these figures by the method of Litchfield and Wilcoxon (J. Pharmacol. Exp. Ther. 96 (1949), p. 99).

[4] = system: acetic acid stretching; assay: Analgesic action: acetic acid stretching test; type: in vivo, female mice of a NMRI strain; conditions: Mus musculus, 0.25 h; oral dose of 158 mg/kg, mice; read-out: Animals relieved of pain in %
Method: The analgesic action of the compounds of the formula I according to the invention was tested by means of the acetic acid stretching test on mice by the method of R. Koster et al., Fed. Prod. 18 (1959), p. 412.
The experimental animals used were female mice of a NMRI strain having a body weight (BW) between 21 and 28 g. Groups of 12 animals each received 0.1 ml/10 g of BW of a 0.6% strength acetic acid solution injected intraperitoneally. The test substances were administered 30 minutes beforehand. Immediately after the injection of acetic acid, the animals were placed alone and the number of typical stretching movements occurring within 15 minutes were counted, which comprise a brief tensing of the stomach muscles including the flank parts and subsequent stretching of the rear body and at least one read extremity.
The test substances were administered orally in a volume of 10 ml/kg of BW in a 1% strength aqueous carboxymethylcellulose (CMC) suspension.

[5] = target: T1, 5-lipoxygenase (Homo sapiens, UniProt P09917); assay: Inhibition of 5-lipoxygenase: LTB4 formation in isolated polymorphonuclear human granulocytes; type: cell-based; conditions: ionophor A 23 187, LTB4 by HPLC, 37° C.
T1 construct: in-vitro experiments on isolated polymorphonuclear human granulocytes; endogenous in cells; host or cells: isolated human polymorphonuclear granulocytes
T1 sequence (P09917 1-674): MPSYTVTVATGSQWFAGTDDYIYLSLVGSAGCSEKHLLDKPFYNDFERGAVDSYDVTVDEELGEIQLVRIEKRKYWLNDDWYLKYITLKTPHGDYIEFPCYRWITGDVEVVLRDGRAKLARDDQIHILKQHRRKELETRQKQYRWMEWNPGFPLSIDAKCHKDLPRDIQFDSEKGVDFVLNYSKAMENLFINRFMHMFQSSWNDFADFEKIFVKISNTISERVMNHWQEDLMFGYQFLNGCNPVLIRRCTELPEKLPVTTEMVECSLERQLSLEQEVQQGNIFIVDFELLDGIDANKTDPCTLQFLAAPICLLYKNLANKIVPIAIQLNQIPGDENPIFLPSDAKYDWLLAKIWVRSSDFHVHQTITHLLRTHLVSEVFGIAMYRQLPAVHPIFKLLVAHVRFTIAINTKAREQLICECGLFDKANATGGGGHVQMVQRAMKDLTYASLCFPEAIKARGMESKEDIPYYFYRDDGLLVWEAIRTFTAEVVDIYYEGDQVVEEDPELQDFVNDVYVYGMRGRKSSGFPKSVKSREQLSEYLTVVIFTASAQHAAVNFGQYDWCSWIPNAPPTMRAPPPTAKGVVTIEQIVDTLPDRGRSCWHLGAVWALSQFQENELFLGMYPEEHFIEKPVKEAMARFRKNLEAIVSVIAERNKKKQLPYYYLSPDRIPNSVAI
Method: 5. Inhibition of 5-lipoxygenase
The inhibitory action of the compounds according to the invention of 5-lipoxygenase-catalysed degradation of arachidonic acid was determined, as usual, in in-vitro experiments on isolated polymorphonuclear human granulocytes. To this purpose, the cells were incubated at 37° C. with the particular test preparation and the formation of pro-inflammatoryleukotriene B4 (LTB4) was induced after 5 minutes using the calcium ionophor A 23 187 (Calbiochem GmbH, Frankfurt/Main, FRG, Biochemical and Immunochemical Catalog 1985, p. 284). The amount of LTB4 liberated over a period of 10 minutes was determined quantitatively with the aid of a UV detector after separation by means of high-pressure liquid chromatography (HPLC).

[6] = system: Adriamycin-induced inflammation; assay: Antioxidative action: inhibition of Adriamycin (doxorubicin) induced inflammation; type: in vivo, male Sprague-Dawley rats; conditions: for Increase in paw volume: after 72 hours, control 390; for Protective effect against Adriamycin-induced tissue destruction (in words): rats, oral
From the text: 4. Antioxidative action According to current opinion, aggressive oxygen radicals, which are formed to excess during the chronic inflammation process and, as highly toxic inflammation mediators themselves, perpetually maintain the connective tissue destruction proceeding via irreversible lipid peroxidation of the cell membranes, participate prominently in the progressive course, caused by a number of factors, of rheumatoid arthritis and other inflammatory disorders. As a result, antioxidatively active pharmaceuticals which are capable of deactivating these extremely cytotoxic oxygen radicals should allow specific intervention in the chronic course of the inflammation. A suitable animal model for this type of tissue destruction caused by oxygen radicals is Adriamycin (doxorubicin) induced inflammation in rats. The investigations were carried out by the method of D. M. Siegel et al. (Inflammation 4 (1980), p. 233) on male Sprague-Dawley rats having a body weight of between 200 and 230 g in groups each with 7 animals, which received 0.1 mg of Adriamycin, dissolved in 0.1 ml of 0.9% strength sodium chloride solution, by subcutaneous injection into the left rear paw. The increase in paw volume after 72 hours was determined by plethysmography measurement as a measure of the degree of inflammation. The test preparations were administered orally once daily on the 4 successive days, starting with the day of Adriamycin injection, in a 1% strength aqueous carboxymethylcellulose suspension.

[7] = single i.p., NMRI mice, mortality within 7 days
[8] = 50 mg/kg p.o., *Significance p <0.05

Row | Compound | inhibition in vivo at 50 mg/kg [1] [%] | LD50 at 168 h [2] [mg/kg] | TD50 at 24 h [3] [mg/kg] | responders at 158 mg/kg [4] [%] | also measured
1 | CC(C)(C)c1cc(C2=NN=C(NCc3ccccc3)SC2)cc(C(C)(C)C)c1O [Example 12] | 65 | 600 to 1200 | > 200 |  | 
2 | CC1SC(N(C)C)=NN=C1c1cc(C(C)(C)C)c(O)c(C(C)(C)C)c1 (stereo not shown) [Example 22] |  | 600 to 1200 | > 200 | 92 | inhibition in vivo at 12.5 mg/kg ([1]; rats): 84%
3 | Cc1cc(C2=NN=C(N(C)C)SC2)cc(C(C)(C)C)c1O [Example 3, 5-(5-tert.butyl-3-methyl-4-hydroxyphenyl)-2-dimethylamino-6H-1,3,4-thiadiazine hydrobromide] | 58 |  | > 200 | 42 | LD50 at 168 h [2, 7]: 600 to 1200 mg/kg; pIC50 [5]: 5.40
4 | CC(C)(C)c1cc(C2=NN=C(N3CCCCC3)SC2)cc(C(C)(C)C)c1O [Example 18] | 74 | > 1200 | 100 |  | 
5 | CCN(C)C1=NN=C(c2cc(C(C)(C)C)c(O)c(C(C)(C)C)c2)CS1 [Example 8] |  | 300 to 600 | > 200 | 92 | inhibition in vivo at 12.5 mg/kg ([1]; rats): 61%; pIC50 [5]: 4.89
6 | CC1CCN(C2=NN=C(c3cc(C(C)(C)C)c(O)c(C(C)(C)C)c3)CS2)CC1 [Example 2, 5-(3,5-di-tert.butyl-4-hydroxyphenyl)-2-(4-methylpiperidino)-6H-1,3,4-thiadiazine hydrobromide] | 62 |  | 100 | 75 | LD50 at 168 h [2, 7]: 600 to 1200 mg/kg
7 | CCN(C1=NN=C(c2cc(C(C)(C)C)c(O)c(C(C)(C)C)c2)CS1)C(C)C [Example 10] | 82 | > 1200 | 200 |  | 
8 | CCN(CC)C1=NN=C(c2cc(C(C)(C)C)c(O)c(C(C)(C)C)c2)CS1 [Example 9] |  | 600 to 1200 | > 200 |  | inhibition in vivo at 12.5 mg/kg ([1]; rats): 55%
9 | CCCN(CCC)C1=NN=C(c2cc(C(C)(C)C)c(O)c(C(C)(C)C)c2)CS1 [Example 11] | 54 | > 1200 | 100 to 200 |  | 
10 | C=CCNC1=NN=C(c2cc(C(C)(C)C)c(O)c(C(C)(C)C)c2)CS1 [Example 14] | 75 | 600 to 1200 | > 200 | 67 | Protective action ([6]; 25 mg/kg p.o.): 36%; Increase in paw volume ([6]; 25 mg/kg p.o.): 250 µL; Protective action [6, 8]: 59%; Increase in paw volume ([6]; 50 mg/kg p.o.): 160 µL; Protective effect against Adriamycin-induced tissue destruction (in words) [6]: strong, dose-dependent protective effect
11 | CN(C)C1=NN=C(c2cc(C(C)(C)C)c(O)c(C(C)(C)C)c2)CS1 [Example 1, 5-(3,5-di-tert.butyl-4-hydroxyphenyl)-2-dimethylamino-6H-1,3,4-thiadiazinehydrobromide] |  | 600 to 1200 | 200 | 83 | inhibition in vivo at 12.5 mg/kg ([1]; rats): 69%; ED50 ([1]; from the dose/action curve, p.o., rats): 6 mg/kg; Protective action ([6]; 25 mg/kg p.o.): 10%; Increase in paw volume ([6]; 25 mg/kg p.o.): 350 µL; Protective action [6, 8]: 69%; Increase in paw volume ([6]; 50 mg/kg p.o.): 120 µL; Protective effect against Adriamycin-induced tissue destruction (in words) [6]: strong, dose-dependent protective effect; selectivity ratio ([2]; LD50 (i.p. mice) divided by ED50 (adjuvant arthritis, rats), read-out: LD50/ED50 quotient): ~150; selectivity ratio [3]: ~33; pIC50 [5]: 5.05
12 | CC(C)(C)c1cc(C2=NN=C(N3CCCC3)SC2)cc(C(C)(C)C)c1O [Example 17] |  |  |  |  | pIC50 [5]: 5.00
13 | CN1CCN(C2=NN=C(c3cc(C(C)(C)C)c(O)c(C(C)(C)C)c3)CS2)CC1 [Example 20] | 72 | 150 to 300 | 200 |  | 
14 | CNC1=NN=C(c2cc(C(C)(C)C)c(O)c(C(C)(C)C)c2)CS1 [Example 4, 5-(3,5-di-tert.butyl-4-hydroxyphenyl)-2-methylamino-6H-1,3,4-thiadiazine-hydrochloride] | 81 |  | 100 to 200 | 83 | LD50 at 168 h [2, 7]: 300 to 600 mg/kg
15 | CN(Cc1ccccc1)C1=NN=C(c2cc(C(C)(C)C)c(O)c(C(C)(C)C)c2)CS1 [Example 13] | 71 | 600 to 1200 | > 200 | 42 | 
16 | COc1ccc2cc(C(C)C(=O)O)ccc2c1 (stereo not shown) [naproxen, 2-(6-methoxy-2-naphthyl)-propionic acid, reference compound] | 55 |  |  |  | ED50 [1]: 17.5 mg/kg; Protective effect against Adriamycin-induced tissue destruction (in words) [6]: ineffective
